Test results reported in patent US5434188A, “1-ether and 1-thioether-naphthalene-2-carboxamides as inhibitors of cell adhesion and as inhibitors of the activation of HIV” (Warner-Lambert Company, priority 1994, dated 1995).

What was measured:
[1] = test system: HIV-1 activation in OM-10.1 cells; conditions: poster NCDDG/AIDS 1991; cited from earlier work
[2] = test system: CD4 down regulation and viral expression in HIV-infected cells; conditions: Hamamoto, et al. 1989; cited from earlier work
[3] = test system: human neutrophil adhesion to TNF-α stimulated human umbilical vein endothelial cells; assay: Modified method: inhibition of human neutrophil adhesion to TNF-α stimulated HUVEC (ECA), calcein-labeled neutrophils; type: cell-based; conditions: for inhibition at 100 µM / inhibition at 33 µM: Neutrophil, neutrophils labeled with calcein; for inhibition at 100 µM: footnote d: 100 μM; for inhibition at 33 µM: footnote c: 33 μM
Method: MODIFIED METHOD FOR DETERMINING THE INHIBITION OF HUMAN NEUTROPHIL ADHESION TO TNF-α STIMULATED HUMAN UMBILICAL VEIN ENDOTHELIAL CELLS
Second passage HUVEC (Clonetics Corporation, San Diego, Calif., CC-2617) were seeded into Corning (Corning glass works, Corning, N.Y.) 96-well cell culture plates at approximately 5×10^3 cells/well and grown to confluency in supplemented endothelial basal medium (EBM, MCDB-131, Clonetics, 10 ng/mL EGF, 1 μg/mL hydrocortisone, 0.4% bovine brain extract, 5% Fetal Bovine Serum). One day prior to running the assay, typically 3 days postseeding, the cultures were re-fed with 0.2 mL/well supplemented EBM (S-EBM).
Preparation of Test Compounds
Test compounds were prepared as 10 mL stock solutions at a concentration of 1.0 mM. The compound were initially solubilized in 0.1 mL DMSO followed by the addition of 9.9 mL S-EBM. The drug preparations were then diluted in one step to a concentration of 66.6 μM. Solubilizations and dilutions were performed in polystyrene containers.
Recombinant human tumor necrosis factor-α(TNF, Genzyme, Boston, Mass., code TNF-H) was prepared at 400 U/mL in S-EBM. Stock TNF was prepared to 20,000 U/mL in Delbecco's phosphate buffered saline (PBS, Gibco, Grand Island, N.Y.) plus 0.1% BSA and stored at -70° C. HUVEC were washed one time with 0.2 mL warm unsupplemented EBM and then stimulated for 4 hours at 37° C. with 200 U/mL TNF in the presence of 33.3 μM test compound. This was accomplished by adding 0.1 mL of 400 U/mL TNF and 0.1 mL 66.6 μM test compound. These additions were done slowly as to not disrupt the HUVEC monolayer. Each compound was tested in six wells. Unstimulated (Vehicle control) and TNF-stimulated without test compound treatments were also run in each plate.
One hour prior to adding the neutrophils to the HUVEC, neutrophils (5×10^6/ mL) were labeled for 30 minutes at 37° C. with 5 μM calcein-AM (Molecular Probes, Eugene, Oreg.) in Hanks' balanced salt solution plus 0.45% BSA. Stock calcein was prepared to 5 mM in anhydrous DMSO and stored desiccated at -20° C. At the end of the incubation the cells were washed two times in cold HBSS and resuspended to a final concentration of 1×10^6 cells/mL in unsupplemented EBM.
Addition of Neutrophils to HUVEC
At the end of the 4-hour stimulation and immediately prior to the addition of the neutrophils to the HUVEC monolayer, the plates were washed with 0.2 mL warm unsupplemented EBM to remove TNF and drug. Neutrophils (1×10^5 cells) were slowly added to each of the treated wells and incubated for 30 minutes at 37° C. At the end of the incubation the plates were washed two times with 0.2 mL warm unsupplemented EBM followed by a final addition of 0.1 mL for plate scanning.
Determination of Relative Fluorescence
The relative fluorescence was determined using a Millipore Cytofluor 2300 system (excitation=480, emission=530, sensitivity=4).
Results were expressed as means of percent inhibition of TNF-stimulated adherence, using the following equation: [formula]
Some of these compounds were tested at concentrations of 33.3 μM, 10.0 μM, 3.3 μM, and 1.0 μM to determine IC50 values. Linear regression analysis of the means of the inhibition values were used to determine the IC50.

[4] = test system: ICAM-1; assay: ELISA of ICAM-1 on TNFα stimulated HUVEC; type: cell-based, human; conditions: first of the two values
Method: (§1) Murine monoclonal anti-human ICAM-1 (R & D Systems, Cat No. BBA-4) or murine monoclonal anti-human E-selectin (R & D, Cat No. BBA-2) dissolved in DMEM/2%BSA were added to each well at 0.5 μg/mL and allowed to incubate at 37° C. for 2 hours. HUVEC monocultures were then washed 4 times with DMEM/2%BSA. A peroxidase conjugated sheep anti-mouse IgG (Cappel) was added (1:3,000 dilution) and allowed to incubate 1 hour at 37° C. The cells were then washed 4 times with DMEM. A color reagent (Biorad) was added to the fixed cells and incubated 15 minutes at room temperature. The reaction was stopped with a 2% oxalic acid solution and the absorbance read at 414 nm on a titertek plate reader.
(§2) Compounds were dissolved in DMSO at a concentration of […] and diluted with media to obtain final testing concentrations. HUVECs received compound dissolved in media 30 minutes before the TNFα challenge. The absorbance of non-stimulated HUVECs was subtracted from the absorbance values of TNFα stimulated cells before percent inhibition was determined. Percent inhibition was determined by comparing the absorbance of vehicle treated cells with drug treated cells. IC50 s were determined using linear regression analysis.

[5] = test system: E-selectin; assay: ELISA of E-selectin on TNFα stimulated HUVEC; type: cell-based, human; conditions: second of the two values
Method: as §1, §2

[6] = test system: HIV-1 activation in OM-10.1 cells; assay: Inhibition of activation of latent HIV-1 in the OM-10.1 cell line (TNF-α induced); type: cell-based; conditions: Human immunodeficiency virus 1, read-out: OM-10n (IC50 μM)
Excerpt: The cellular pathways involved in mediating the activating signal from the plasma membrane to the integrated virus, resulting in HIV-1 expression, are much less clear. Recently, the development of a reliable and simple system for evaluating compounds that could prevent activation of latent HIV was reported at the National […] (NCDDG)/AIDS by P. Feorino, S. T. Butera, T. M. Folks, and R. F. Schinazi, Nov. 3-7, 1991. The assay system employed the OM-10.1 cell line, a unique chronically-infected promyelocytic clone which remains CD4+ until HIV-1 activation with tumor necrosis factor-α. The expression of CD4+ on the cell surface and the activity of reverse transcriptase are used as markers for quantitating viral expression. Alternatively, other HIV markers, such as protease activity, which are known to those of skill in the art can be used. OM-10.1 cells remain CD4^+ until viral activation and respond to tumor necrosis factor induction, and therefore, these cultures are used to conveniently and rapidly examine pharmacologics for an ability […] down modulation (decrease in expression of CD4^+ on the cell surface) and HIV-1 expression.
A variety of compounds known to have antiviral properties against either acutely or chronically infected cells were evaluated for their ability to inhibit HIV expression in these OM-10.1 cells. […]

[7] = test system: human neutrophil adhesion to TNF-α, IL-α, and LPS-stimulated human umbilical vein endothelial cells; assay: Inhibition of human neutrophil adhesion to stimulated human umbilical vein endothelial cells (ECA), 51Cr-labeled neutrophils; type: cell-based; conditions: footnote b: 100 μM, neutrophils labeled with Cr
Excerpt: METHOD FOR DETERMINING THE INHIBITION OF HUMAN NEUTROPHIL ADHESION TO TNF-α, IL-α, AND LPS-STIMULATED HUMAN UMBILICAL VEIN ENDOTHELIAL CELLS (ECA)
Neutrophils were isolated from anticoagulant-treated venous blood obtained from healthy human volunteers according to the method of Ferrante and Thong (J. Immunol. Methods 24:389-393 (1978)). The cell preparations consisted of greater than 98% neutrophils.
Second passage human umbilical vein endothelial cells (HUVEC) (Clonetics, San Diego, Calif.) were seeded into Falcon 24-well cell culture plates (Becton Dickinson, Lincoln Park, N.J.) at approximately 2×10^4 cells per well. The cells were grown to confluent monolayers in endothelial basal medium (EBM, Clonetics) supplemented with 5% fetal calf serum (Hyclone Laboratories, Logan, Utah), 10 ng/mL EGF, 1 μg/mL hydrocortisone, 0.4% bovine brain extract (Clonetics) in 5% CO2 at 37° C. […]
Stimulation of HUVEC with tumor necrosis factor-α (TNF-α) (Genzyme, Cambridge, Mass.), interleukin (IL-1α) (Genzyme) or E. coli 0111:B4 lipopolysaccharide (LPS) (Sigma) in the presence or absence of drug was initiated 4 hours prior to the addition of neutrophils. […] Lysates were collected and the radioactivity in each well was determined by gamma ray spectroscopy. […]

## Cc1cn([C@H]2C[C@H](F)[C@@H](CO)O2)c(=O)[nH]c1=O [3'-fluoro-3'-deoxythymidine (FLT), 3'-fluoro-3'-deoxythymidine]
[1]
  inhibition of HIV-1 activation, in words: modest inhibitors of the activation of HIV-1

## CCCCCCCCCCCCCC(=O)O[C@@H]1[C@@H](C)[C@@]2(O)[C@@H](C=C(CO)C[C@]3(O)C(=O)C(C)=C[C@@H]23)[C@@H]2C(C)(C)[C@]12OC(C)=O [12-0-tetradecanoylphorbol-13-acetate]
[2]
  effect on CD4 down regulation and HIV expression, in words: mediates CD4 down regulation and viral expression in HIV-infected cells

## COc1ccc2ccc(C(N)=O)c(OC(C)C)c2c1 [Example 1, 7-Methoxy-1-(1-methylethoxy)-2-naphthalenecarboxamide]
[3]; footnote a, neutrophil adhesion to stimulated HUVEC, neutrophil label not given
  IC50: 11000 nM
[4]
  ICAM/ESEL % Inhib @ 30 μM: ICAM: 77%
[5]
  ICAM/ESEL % Inhib @ 30 μM: ESEL: 84%
[6]
  IC50: 2.5 µM

## CCNC(=O)c1ccc2ccc(OC)cc2c1OC(C)C [Example 2, N-Ethyl-7-methoxy-1-(1-methylethoxy)-2-naphthalenecarboxamide]
[3]
  inhibition at 100 µM: 73%

## COc1ccc2ccc(C(=O)NC(C)C)c(OC(C)C)c2c1 [Example 3, 7-Methoxy-1-(1-methylethoxy)-N-(1-methylethyl)-2-naphthalenecarboxamide]
[3]
  inhibition at 33 µM: 64%

## COc1ccc2ccc(C(=O)NCc3ccccc3)c(OC(C)C)c2c1 [Example 4, 7-Methoxy-1-(1-methylethoxy)-N-(phenylmethyl)-2-naphthalenecarboxamide]
[3]
  inhibition at 100 µM: 14%

## CC(C)Oc1ccc2ccc(C(N)=O)c(OC(C)C)c2c1 [Example 5, 1,7-Bis-(1-methylethoxy)-2-naphthalenecarboxamide]
[7]
  inhibition at 100 µM: 45%
[6]
  IC50: 0.5 µM

## COc1ccc2c(OC(C)C)c(C(N)=O)ccc2c1 [Example 6, 6-Methoxy-1-(1-methylethoxy)-2-naphthalenecarboxamide]
[3]
  inhibition at 33 µM: 9%

## COc1ccc2ccc(C(N)=O)c(OC)c2c1 [Example 7, 1,7-Dimethoxy-2-naphthalenecarboximide]
[3]
  inhibition at 33 µM: 15%

## CN[C@@H]1C[C@H]2O[C@@](C)([C@@H]1OC)n1c3ccccc3c3c4c(c5c6ccccc6n2c5c31)C(=O)NC4 [Staurosporine, staurosporine]
[2]
  effect on CD4 down regulation and HIV expression, in words: effective TPA inhibitor for both of these actions

## CC(=O)N(O)CCCCCNC(=O)CCC(=O)N(O)CCCCCNC(=O)CCC(=O)N(O)CCCCCN [desferrioxamine]
[1]
  inhibition of HIV-1 activation, in words: modest inhibitors of the activation of HIV-1

## interferon Y: modest inhibitor of the activation of HIV-1
[1]
  inhibition of HIV-1 activation, in words: modest inhibitors of the activation of HIV-1
